The record followed here is patent US7521454B2 (Dainippon Sumitomo Pharma Co., Ltd., priority 2001, dated 2009).

The Cmax is the maximum level reached in the sampled fluid or tissue. The Tmax is the time from dosing to the highest level. What is called solubility is how much of the substance goes into solution per volume.

Converted amounts (≈) assume the structure as drawn. Structures can show the parent of a compound that is named as a salt. Where two headings read alike, the source gives them in different places.

In one data set the test system is IL-4 production. Briefly: Inhibitory activity against Th2 cytokine produced from sensitized spleen cells: IL-4. The format is cell-based, mouse. The settings on record: OVA-sensitized BALB/c spleen cells, 3 days; for activity at 0.001 µM / activity at 0.01 µM / activity at 0.1 µM: Mus musculus, 72 h, read-out: Inhibitory activity against IL-4 production. As to the method:
(§1) A 7-week-old BALB/c mouse was immunized intraperitoneally with aluminum hydroxide gel (4 mg, 100 μl) having 10 μg of ovalbumin adsorbed thereon, and it was subjected to additional immunization with the same agent 14 days later. Seven days thereafter, spleen was taken out, and suspended in RPMI-1640 comprising inactivated fetal bovine serum (10%), 2-mercaptoethanol ([…]), penicillin G (100 U/ml), and streptomycin (100 μg/ml). Thus, a splenic cell suspension was prepared. Ovalbumin (0.5 mg/ml) and a test compound were added to a splenic cell suspension (5×10^6 cell/200 μl/well), and the resultant was cultured at 37° C. in the presence of 5% CO2 for 3 days. The cytokine level in the culture supernatant was quantified by ELISA. IFN-γ and IL-4 were assayed using a kit available from Amersham, and IL-5 was assayed using a kit available from Endogen.

Data set [1] in a line: Gastrointestinal absorption in rat (drug level in blood by HPLC). The format is in vivo. As to conditions: SD male rat. The method, then:
A test compound was suspended in an aqueous solution of 0.5% carboxymethylcellulose, and the resulting suspension was orally administered to an SD male rat. Blood was sampled with the elapse of time, and the level of the drug in blood was assayed by HPLC.

Data set [2] is described as follows: Solubility in citric acid/disodium phosphate buffers. The settings on record: citric acid/disodium phosphate buffer, thermodynamic from solid.
Protocol: 5.53% citric acid (monohydrate) and 1.75% disodium phosphate (anhydrous) were mixed together to prepare buffers (pH 2.5, 5.5, 7.4). A compound was added thereto, the mixture was stirred in a vortex mixer and subjected to ultrasonication for 30 minutes. Thereafter, the resultant was stirred in a vortex mixer again and then centrifuged at 15,000 rpm for 20 minutes. The levels of the compounds in the supernatants were then quantified by HPLC.
Another data set deals with IL-5 production. Briefly: Inhibitory activity against Th2 cytokine produced from sensitized spleen cells: IL-5. Format: cell-based, mouse. As to conditions: OVA-sensitized BALB/c spleen cells, 3 days; for activity at 0.001 µM / activity at 0.01 µM / activity at 0.1 µM: Mus musculus, 72 h, read-out: Inhibitory activity against IL-5 production. The method, then: as §1
In a further data set the test system is Balb/c male mouse. Put plainly: Interferon-inducing activity in mouse (in vivo), serum interferon titer after oral dosing.
In data set [3] the test system is human peripheral blood mononuclear cells (PBMC). Briefly: Interferon-inducing activity in human peripheral blood mononuclear cells (PBMC), IFN-α ELISA.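 Further: IFN-α in pg/ml with a 1.25 pg/ml detection limit.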 As to conditions: 24 h. Format: cell-based. As to the method: Peripheral bloods were sampled from 5 healthy volunteers using a syringe containing heparin, and peripheral blood mononuclear cells (PBMC) were prepared by density gradient centrifugation utilizing the Lymphoprep™ (NYCOMED PHARMA AS). PBMCs were washed twice in serum-free RPMI 1640 medium and adjusted at 1×10^6 cells/ml in RPMI 1640 medium comprising 10% fetal bovine serum. The product was cultured in the presence of a test compound dissolved in dimethyl sulfoxide (final concentration: 0.1%) in an incubator in the presence of 5% CO^2 at 37° C. for 24 hours. As a control, 0.1% dimethyl sulfoxide containing no test compound was used. The culture supernatant was aseptically collected by filtration. Thereafter, the supernatant was cryopreserved at −20° C. or lower until it was subjected to the assay for IFN-inducing activity. Human IFN-α in the culture supernatant was quantified using a highly sensitive ELISA system (Amersham).
On the technique in general: ELISA stands for enzyme-linked immunosorbent assay.

Data set [4] concerns male cynomolgus monkeys. The settings on record: po, 10 mg/kg, 4 h.
For the next data set, the system named is mouse spleen cell. Briefly: cells. The format is cell-based. As to conditions: for minimal effective concentration: Mus musculus, 24 h, read-out: Interferon-inducing activity: Minimum effective concentration.
The subject of data set [5] is rat model of eosinophil leukocytic infiltration. Briefly: Rat model of eosinophil leukocytic infiltration (OVA, bronchoalveolar lavage). The format is in vivo. The settings on record: 0.01 mg/kg intratracheal, 2.5 hours before induction, lavage 24 hours after. The method, then:
A rat was immunized intraperitoneally with 1 ml of a solution containing 1 mg of ovalbumin (OVA) and 100 mg of Al(OH)3 on day 0 and day 7. On day 14, a 1% OVA solution was sprayed for 15 minutes using a ultrasonic nebulizer to induce reactions. A test compound was administered intratracheally 2.5 hours before the induction. Bronchoalveolar lavage was performed 24 hours after the induction, and eosinocytes in the wash was stained with Hinkelman to count the number of stained cells. Sensi.−/Challe.+, CMC-Na, and Fluticasone were used as controls. FIG. 1 and the following table show the results.

Data set [6] deals with male cynomolgus monkeys. Put plainly: Interferon-inducing activity in cynomolgus monkey (in vivo), serum interferon titer and vomition. As to conditions: 10 mg/kg oral.
The mark [7] stands for this setting: blood, dose 3 mg/kg oral, read-out: Cmax.
Where [8] appears, read: blood, dose 3 mg/kg oral, read-out: Tmax.

With `CCCCNc1nc(N)c2nc(O)n(Cc3ccc(OC)nc3)c2n1` [Example 19, 2-Butylamino-8-hydroxy-9-(6-methoxy-3-pyridylmethyl)adenine], the activity at 0.001 µM with IL-4 production (concentration 1 nM) stood at 32%; in the data set on IL-5 production (concentration 1 nM), 83%. For the same molecule, the activity at 0.01 µM in the data set with IL-4 production (concentration 10 nM) is below 1%; in the data set with IL-5 production (concentration 10 nM) it was 16%. In addition, the results for the activity at 0.1 µM in the data set with IL-4 production (concentration 100 nM) and in the data set with IL-5 production (concentration 100 nM) were below 1% and 13%, respectively. Besides, the Cmax in [1] (setting [7]) amounted to 188 ng/mL. For the same molecule, in data set [1] (setting [8]), the Tmax was determined as 240 min. The solubility at 30 min in [2] (pH 2.5, aqueous buffer) came out at 130 µg/mL (≈ 379 µM); in data set [2] (pH 5.5, aqueous buffer), 2 µg/mL (≈ 5.82 µM); in data set [2] (pH 7.4, aqueous buffer) it was 2 µg/mL (≈ 5.82 µM). Further, the Interferon-inducing activity in the data set with Balb/c male mouse (po, 0.01 mg/kg, 2 h) worked out at 14 ± 5 U/ml; with Balb/c male mouse (po, 0.03 mg/kg, 2 h), 199 ± 84 U/ml; with Balb/c male mouse (po, 0.1 mg/kg, 2 h) it was 383 ± 122 U/ml; in the data set with Balb/c male mouse (po, 0.3 mg/kg, 2 h) it was 601 ± 187 U/ml. Also, the “Interferon-inducing activity (human IFN-α in culture supernatant)” value in [3] (concentration 1 nM) was 5 ± 1 pg/mL; in [3] (concentration 3 nM) it was 12 ± 11 pg/mL; in data set [3] (concentration 10 nM), 48 ± 34 pg/mL; in data set [3] (concentration 30 nM), 60 ± 33 pg/mL. In the data set on male cynomolgus monkeys [4], the “interferon titer in blood serum (average±SE)” value is 12,173±6619 U/ml. For the same molecule, in the data set on mouse spleen cell, the minimal effective concentration worked out at 0.003 µM.
On to `C[C@@H]1C[C@H]2[C@@H]3C[C@H](F)C4=CC(=O)C=C[C@]4(C)[C@@]3(F)[C@@H](O)C[C@]2(C)[C@@]1(O)C(=O)SCF` [Fluticasone, reference compound], for which, in [5], the “eosinocytes in bronchoalveolar lavage, Average” value is given as 300.07 ×10^4 cells.
Regarding “1-(2-hydroxy-2-methylpropyl)-2-methoxyethyl-1H-imidazo[4,5-c]quinoline-4-amine [Comparative Example 2, reference compound]”, the “Inhibitory activity against IL-4 production” value in the data set with IL-4 production (concentration 0.1 nM) is reported as 90 % of control; in the data set on IL-4 production (concentration 1 nM), 24 % of control; in the data set on IL-4 production (concentration 10 nM), 1 % of control; with IL-4 production (concentration 100 nM) it was <1 % of control. Moreover, the results for the Cmax in data set [1] (dose 3 mg/kg oral) and in data set [1] (dose 10 mg/kg oral) were 19 ng/mL and 15 ng/mL, respectively. The Tmax was determined as 60 min in [1] (dose 3 mg/kg oral) and 30 min in data set [1] (dose 10 mg/kg oral). Moreover, the “Inhibitory activity against IL-5 production” value in the data set with IL-5 production (concentration 0.1 nM) is 106 % of control; with IL-5 production (concentration 1 nM), 73 % of control; with IL-5 production (concentration 10 nM), 18 % of control; with IL-5 production (concentration 100 nM), 10 % of control. The Interferon-inducing activity in the data set with Balb/c male mouse (dosage 0.1 mg/kg oral, serum 2 h after dosing, Balb/c mouse) was determined as 1638 ± 246 U/ml; with Balb/c male mouse (dosage 0.3 mg/kg oral, serum 2 h after dosing, Balb/c mouse) it was 1961 ± 950 U/ml. For the same molecule, the “Interferon-inducing activity (human IFN-α in culture supernatant)” value in data set [3] (concentration 0.3 nM) is “— ((−) indicates a detection limit (1.25 pg/ml) or lower)”; in data set [3] (concentration 1 nM), “— ((−) indicates a detection limit (1.25 pg/ml) or lower)”; in [3] (concentration 3 nM), 6 ± 5 pg/mL. Moreover, the “Interferon-inducing activity: Minimum effective concentration” value with mouse spleen cell amounted to 3 nM.
On to `CCCCOc1nc(N)c2nc(O)n(Cc3ccc(C)nc3)c2n1` [Hydrochloride of Example 25, 2-Butoxy-8-hydroxy-9-(6-methyl-3-pyridylmethyl)adenine], for which the Cmax came to 18 ng/mL in [1] (setting [7]) and 150 ng/mL in [1] (blood, dose 10 mg/kg oral, read-out: Cmax). In addition, the Tmax in [1] (setting [8]) amounted to 60 min; in [1] (blood, dose 10 mg/kg oral, read-out: Tmax), 15 min.
As for `CCCCOc1nc(N)c2nc(Br)n(Cc3ccc(Cl)nc3)c2n1` [Reference Example 2, 8-Bromo-2-butoxy-9-(6-chloro-3-pyridylmethyl)adenine], the vomition observed in the data set on male cynomolgus monkeys [6] (cynomolgus monkeys) is reported as 4 out of 5 samples. Besides, in the data set on male cynomolgus monkeys [6] (four hours after the administration, five male cynomolgus monkeys), the “interferon titer in blood serum (average±SE)” value is reported as 18,305±5578 U/ml.
`CC(C)Cn1cnc2c(N)nc3ccccc3c21` [Comparative Example 1, Imiquimod, reference compound]: the results for the activity at 0.001 µM in the data set on IL-4 production (concentration 1 nM) and in the data set with IL-5 production (concentration 1 nM) were 18% and 54%, respectively. The results for the activity at 0.01 µM in the data set with IL-4 production (concentration 10 nM) and in the data set with IL-5 production (concentration 10 nM) were 1% and 15%, respectively. Moreover, the activity at 0.1 µM in the data set on IL-4 production (concentration 100 nM) was below 1%; in the data set with IL-5 production (concentration 100 nM), 10%. For the same molecule, the Cmax in data set [1] (setting [7]) worked out at 90 ng/mL. The Tmax in data set [1] (setting [8]) was 30 min. Besides, in the data set with mouse spleen cell, the minimal effective concentration came out at 0.3 µM.
